In patent US11873309B2, “Heterocyclic compounds as immunomodulators” (Incyte Corporation, priority 2016, dated 2024):

Target: T1, PD-1/PD-L1 protein/protein interaction (recombinant human PD-L1 protein (19-238), recombinant human PD-1 protein (25-167)) (Homo sapiens, UniProt Q9NZQ7)
T1 construct: Recombinant human PD-L1 protein (19-238) with a His-tag at the C-terminus; purchased AcroBiosystems PD1-H5229 (PD-L1); PD1-H5257 (PD-1)
Experiment: PD-1/PD-L1 Homogeneous Time-Resolved Fluorescence (HTRF) Binding Assay
Conditions: 25° C., PBS buffer pH 7.4, 40 minutes preincubation with inhibitors
Description: Example A. PD-1/PD-L1 Homogeneous Time-Resolved Fluorescence (HTRF) Binding Assay
The assays were conducted in a standard black 384-well polystyrene plate with a final volume of 20 μL. Inhibitors were first serially diluted in DMSO and then added to the plate wells before the addition of other reaction components. The final concentration of DMSO in the assay was 1%. The assays were carried out at 25° C. in the PBS buffer (pH 7.4) with 0.05% Tween-20 and 0.1% BSA. Recombinant human PD-L1 protein (19-238) with a His-tag at the C-terminus was purchased from AcroBiosystems (PD1-H5229). Recombinant human PD-1 protein (25-167) with Fc tag at the C-terminus was also purchased from AcroBiosystems (PD1-H5257). PD-L1 and PD-1 proteins were diluted in the assay buffer and 10 μL was added to the plate well. Plates were centrifuged and proteins were preincubated with inhibitors for 40 minutes. The incubation was followed by the addition of 10 μL of HTRF detection buffer supplemented with Europium cryptate-labeled anti-human IgG (PerkinElmer-AD0212) specific for Fc and anti-His antibody conjugated to SureLight®-Allophycocyanin (APC, PerkinElmer-AD0059H). After centrifugation, the plate was incubated at 25° C. for 60 min. before reading on a PHERAstar FS plate reader (665 nm/620 nm ratio). Final concentrations in the assay were […], 10 nM PD-L1, 1 nM europium anti-human IgG and 20 nM anti-His-Allophycocyanin. IC50 determination was performed by fitting the curve of percent control activity versus the log of the inhibitor concentration using the GraphPad Prism 5.0 software.

T1 sequence (Q9NZQ7 19-238): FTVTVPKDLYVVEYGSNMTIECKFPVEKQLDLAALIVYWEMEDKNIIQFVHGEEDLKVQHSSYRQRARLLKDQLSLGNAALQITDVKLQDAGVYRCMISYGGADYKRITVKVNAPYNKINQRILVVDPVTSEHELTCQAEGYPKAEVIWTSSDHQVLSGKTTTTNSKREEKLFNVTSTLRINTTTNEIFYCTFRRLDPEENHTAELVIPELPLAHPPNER

IC50 | Compound
100 to 500 nM | N#Cc1cccc(-c2cccc(NC(=O)c3nc4c(s3)CNCC4)c2C#N)c1F [Example 15, N-(2,3′-dicyano-2′-fluorobiphenyl-3-yl)-4,5,6,7-tetrahydro[1,3]thiazolo[5,4-c]pyridine-2-carboxamide]
≤ 100 nM | COc1cccc(-c2cccc(NC(=O)c3nc4c(s3)CNCC4)c2C#N)c1 [Example 16, N-(2-cyano-3′-methoxybiphenyl-3-yl)-4,5,6,7-tetrahydrothiazolo[5,4-c]pyridine-2-carboxamide]
≤ 100 nM | COc1cc(F)cc(-c2cccc(NC(=O)c3nc4c(s3)CNCC4)c2C#N)c1 [Example 17, N-(2-cyano-3′-fluoro-5′-methoxybiphenyl-3-yl)-4,5,6,7-tetrahydro[1,3]thiazolo[5,4-c]pyridine-2-carboxamide]
≤ 100 nM | N#Cc1c(NC(=O)c2nc3c(s2)CNCC3)cccc1-c1ccccc1Cl [Example 18, N-(2′-chloro-2-cyanobiphenyl-3-yl)-4,5,6,7-tetrahydro[1,3]thiazolo[5,4-c]pyridine-2-carboxamide]
≤ 100 nM | COc1cccc(-c2cccc(NC(=O)c3cn4c(n3)CNCC4)c2C#N)c1F [Example 19, N-(2-cyano-2′-fluoro-3′-methoxybiphenyl-3-yl)-5,6,7,8-tetrahydroimidazo[1,2-a]pyrazine-2-carboxamide]
≤ 100 nM | Cc1c(NC(=O)c2nc3c(s2)CNCC3)cccc1-c1ccc2c(c1)OCCO2 [Example 20, N-[3-(2,3-dihydro-1,4-benzodioxin-6-yl)-2-methylphenyl]-4,5,6,7-tetrahydro[1,3]thiazolo[5,4-c]pyridine-2-carboxamide]
≤ 100 nM | COc1cccc(-c2cccc(NC(=O)c3nc4c(s3)CNCC4)c2C)c1F [Example 21, N-(2′-fluoro-3′-methoxy-2-methylbiphenyl-3-yl)-4,5,6,7-tetrahydro[1,3]thiazolo[5,4-c]pyridine-2-carboxamide]
≤ 100 nM | COc1cccc(-c2cccc(NC(=O)c3nc4c(n3C)CCNC4)c2C)c1F [Example 22, N-(2′-fluoro-3′-methoxy-2-methylbiphenyl-3-yl)-1-methyl-4,5,6,7-tetrahydro-1H-imidazo[4,5-c]pyridine-2-carboxamide]
≤ 100 nM | Cc1c(NC(=O)c2nc3c(s2)CNCC3)cccc1-c1cccc2c1cnn2C [Example 23, N-[2-methyl-3-(1-methyl-1H-indazol-4-yl)phenyl]-4,5,6,7-tetrahydro[1,3]thiazolo[5,4-c]pyridine-2-carboxamide]
500 to 10000 nM | Cc1c(NC(=O)c2nc3c(s2)CNCC3)cccc1-c1cccc(CO)c1F [Example 24, N-[2′-fluoro-3′-(hydroxymethyl)-2-methylbiphenyl-3-yl]-4,5,6,7-tetrahydro[1,3]thiazolo[5,4-c]pyridine-2-carboxamide]
≤ 100 nM | Cc1c(NC(=O)c2nc3c(s2)CNCC3)cccc1-c1cccc2[nH]ncc12 [Example 25, N-[3-(1H-indazol-4-yl)-2-methylphenyl]-4,5,6,7-tetrahydro[1,3]thiazolo[5,4-c]pyridine-2-carboxamide]
≤ 100 nM | Cc1c(NC(=O)c2nc3c(s2)CNCC3)cccc1-c1ccccc1 [Example 26, N-(2-methylbiphenyl-3-yl)-4,5,6,7-tetrahydro[1,3]thiazolo[5,4-c]pyridine-2-carboxamide]
≤ 100 nM | Cc1c(NC(=O)c2nc3c(s2)CN(CCO)CC3)cccc1-c1ccccc1 [Example 27, 5-(2-hydroxyethyl)-N-(2-methylbiphenyl-3-yl)-4,5,6,7-tetrahydrothiazolo[5,4-c]pyridine-2-carboxamide]
≤ 100 nM | Cc1c(NC(=O)c2nc3c(s2)CN(CC(=O)O)CC3)cccc1-c1ccccc1 [Example 28, 2-(2-(2-methylbiphenyl-3-ylcarbamoyl)-6,7-dihydrothiazolo[5,4-c]pyridin-5(4H)-yl)acetic acid]
100 to 500 nM | Cc1c(NC(=O)c2nc3c(s2)CNCC3)cccc1-c1ccc2cn(C)nc2c1 [Example 29, N-[2-methyl-3-(2-methyl-2H-indazol-6-yl)phenyl]-4,5,6,7-tetrahydro[1,3]thiazolo[5,4-c]pyridine-2-carboxamide]
100 to 500 nM | Cc1c(NC(=O)c2nc3c(s2)CNCC3)cccc1-c1ccccc1C#N [Example 30, N-(2′-cyano-2-methylbiphenyl-3-yl)-4,5,6,7-tetrahydro[1,3]thiazolo[5,4-c]pyridine-2-carboxamide]
500 to 10000 nM | Cc1c(NC(=O)c2nc3c(s2)CNCC3)cccc1-c1ccccc1CC#N [Example 31, N-[2′-(cyanomethyl)-2-methylbiphenyl-3-yl]-4,5,6,7-tetrahydro[1,3]thiazolo[5,4-c]pyridine-2-carboxamide]
≤ 100 nM | COc1cccc(-c2cccc(NC(=O)c3nc4c(s3)CNCC4)c2Cl)c1F [Example 32, N-(2-chloro-2′-fluoro-3′-methoxybiphenyl-3-yl)-4,5,6,7-tetrahydro[1,3]thiazolo[5,4-c]pyridine-2-carboxamide]
≤ 100 nM | O=C(Nc1cccc(-c2ccccc2)c1Cl)c1nc2c(s1)CNCC2 [Example 33, N-(2-chlorobiphenyl-3-yl)-4,5,6,7-tetrahydro[1,3]thiazolo[5,4-c]pyridine-2-carboxamide]
≤ 100 nM | O=C(Nc1cccc(-c2ccc3c(c2)OCCO3)c1Cl)c1nc2c(s1)CNCC2 [Example 34, N-[2-chloro-3-(2,3-dihydro-1,4-benzodioxin-6-yl)phenyl]-4,5,6,7-tetrahydro[1,3]thiazolo[5,4-c]pyridine-2-carboxamide]
≤ 100 nM | Cn1ncc2c(-c3cccc(NC(=O)c4nc5c(s4)CNCC5)c3Cl)cccc21 [Example 35, N-(2-chloro-3-(1-methyl-1H-indazol-4-yl)phenyl)-4,5,6,7-tetrahydrothiazolo[5,4-c]pyridine-2-carboxamide]
≤ 100 nM | Cc1c(NC(=O)c2nc3c(s2)CNCC3)cc(F)cc1-c1ccc2c(c1)OCCO2 [Example 36, N-[3-(2,3-dihydro-1,4-benzodioxin-6-yl)-5-fluoro-2-methylphenyl]-4,5,6,7-tetrahydro[1,3]thiazolo[5,4-c]pyridine-2-carboxamide]
500 to 10000 nM | Cc1c(NC(=O)c2nc3c(s2)CNCC3)ccnc1-c1ccc2c(c1)OCCO2 [Example 37, N-[2-(2,3-dihydro-1,4-benzodioxin-6-yl)-3-methylpyridin-4-yl]-4,5,6,7-tetrahydro[1,3]thiazolo[5,4-c]pyridine-2-carboxamide]
500 to 10000 nM | Cc1c(NC(=O)c2nc3c(s2)CNCC3)cncc1-c1ccc2c(c1)OCCO2 [Example 38, N-[5-(2,3-dihydro-1,4-benzodioxin-6-yl)-4-methylpyridin-3-yl]-4,5,6,7-tetrahydro[1,3]thiazolo[5,4-c]pyridine-2-carboxamide]
≤ 100 nM | COc1cccc(-c2cccc(NC(=O)c3nc4c(n3C)CCNC4)c2C#N)c1F [Example 39, N-(2-cyano-2′-fluoro-3′-methoxybiphenyl-3-yl)-1-methyl-4,5,6,7-tetrahydro-1H-imidazo[4,5-c]pyridine-2-carboxamide]
≤ 100 nM | COc1cccc(-c2cccc(NC(=O)c3nc4c(n3C)CCN(CCO)C4)c2C#N)c1F [Example 40, N-(2-cyano-2′-fluoro-3′-methoxybiphenyl-3-yl)-5-(2-hydroxyethyl)-1-methyl-4,5,6,7-tetrahydro-1H-imidazo[4,5-c]pyridine-2-carboxamide]
100 to 500 nM | COc1cccc(-c2cccc(NC(=O)c3nc4c(n3C)CCN(CC(=O)O)C4)c2C#N)c1F [Example 41, (2-{[(2-cyano-2′-fluoro-3′-methoxybiphenyl-3-yl)amino]carbonyl}-1-methyl-1,4,6,7-tetrahydro-5H-imidazo[4,5-c]pyridin-5-yl)acetic acid]
100 to 500 nM | Cn1c(C(=O)Nc2cccc(-c3cccc4c3cnn4C)c2C#N)nc2c1CCNC2 [Example 42, N-(2-cyano-3-(1-methyl-1H-indazol-4-yl)phenyl)-1-methyl-4,5,6,7-tetrahydro-1H-imidazo[4,5-c]pyridine-2-carboxamide]
